Laboratory results as given in EP3360866B1, “[…]” (Alfred E. Tiefenbacher (GmbH & Co. KG), priority 2017, dated 2018).

Key:
[1] = esterase cleavage / half-life in rat blood plasma; format: in vitro ADME; conditions: for esterase cleavage: after 1 h
Protocol: (§1) Almost 100 % esterase cleavage was found in rat blood plasma after 1 h, whereas about 70 % of the prodrug was cleaved within 4 hours in human blood plasma.
(§2) The half-life of Benzoyloxy(methoxy)carbonyl-Nphenethyl-Mirabegron in rat blood plasma and in human blood plasma was less than 0.5 h. Almost 100 % esterase cleavage was found in rat blood plasma after 1 h, whereas almost 100 % of the prodrug was cleaved within 4 hours in human blood plasma.

[2] = esterase cleavage / half-life in human blood plasma; format: in vitro ADME; conditions: for prodrug cleaved (esterase cleavage): within 4 hours
Protocol: as §1, §2

[3] = oral administration to rats, pharmacokinetics compared with Mirabegron; format: in vivo; conditions: oral administration to Sprague Dawley rats, compared to the parent compound Mirabegron

| Structure (SMILES) | half-life [1] | esterase cleavage [1] [%] | half-life [2] | prodrug cleaved (esterase cleavage) [2] | Cmax [3] | Tmax [3] |
| --- | --- | --- | --- | --- | --- | --- |
| Nc1nc(CC(=O)Nc2ccc(CCN(C[C@H](O)c3ccccc3)C(=O)OCOC(=O)c3ccccc3)cc2)cs1 [Benzoyloxy(methoxy)carbonyl-Nphenethyl-Mirabegron] | less than 0.5 h | ~100 | less than 0.5 h | ~100% | – | – |
| CC(OC(=O)C(C)C)OC(=O)N(CCc1ccc(NC(=O)Cc2csc(N)n2)cc1)C[C@H](O)c1ccccc1 (stereo partly shown) [Enacarbil-Nphenethyl-Mirabegron] | less than 0.5 h | ~100 | less than 2.5 h | about 70% | higher | earlier |
